One assay deals with Mus musculus. The assay is described as follows: Inhibition of inflammatory bowel disease-associated growth retardation in MDR1a-knockout mouse at 50 mg/kg, sc dosed twice daily for 14 consecutive weeks starting at age 10 weeks. The class given is functional, organism-based.
The target of assay [1] is T1, C-C chemokine receptor type 9 (Homo sapiens, UniProt P51686).
T1 sequence (P51686 whole entry): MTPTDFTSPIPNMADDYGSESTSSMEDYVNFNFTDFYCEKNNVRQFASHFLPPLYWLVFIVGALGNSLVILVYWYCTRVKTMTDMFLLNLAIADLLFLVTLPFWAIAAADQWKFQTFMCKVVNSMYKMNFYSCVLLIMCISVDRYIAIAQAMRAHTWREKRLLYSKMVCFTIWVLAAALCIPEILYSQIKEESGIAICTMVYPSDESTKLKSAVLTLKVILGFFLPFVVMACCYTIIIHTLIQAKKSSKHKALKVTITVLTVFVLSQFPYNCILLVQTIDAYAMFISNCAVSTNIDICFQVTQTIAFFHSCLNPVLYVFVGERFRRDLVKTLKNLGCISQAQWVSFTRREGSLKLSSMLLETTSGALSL
The assay can be described thus: Antagonist activity against CCR9 in human MOLT4 cells assessed as inhibition of human recombinant TECK-induced calcium response pre-treated before TECK stimulation by Flou-4-AM dye based FLIPR assay. The class given is functional, cell-based, MOLT-4.

Calls of active or inactive are those of the source. The calls are words filed in the database; no cut-off is given here.

With `CC(C)(C)c1ccc(S(=O)(=O)Nc2ccc(Cl)cc2C(=O)c2ccncc2)cc1`, in the assay on Mus musculus, the result was Active. In assay [1], the IC50 is less than 1000 nM.

These data come from ChEMBL document CHEMBL3714750, “Aryl sulfonamides” (2008).
